Source: PubChem BioAssay (NCI)
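Dose response: 5 concentrations. Exposure: 48 h. Format: 96-well plates. Endpoint: linear interpolation; highest concentration if not reached. Here, GI50 denotes the concentration required for 50% inhibition of growth. TGI marks complete inhibition of growth.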

Legend:
Experiment in all cases: NCI-60 cell line screen, 48 h
786-0 renal = system: 786-0 renal
A498 renal = system: A498 renal
A549 NSCLC = system: A549 NSCLC
ACHN renal = system: ACHN renal
BT-549 breast = system: BT-549 breast
CAKI-1 renal = system: CAKI-1 renal
CCRF-CEM leukemia = system: CCRF-CEM leukemia
COLO 205 colon = system: COLO 205 colon
DU-145 prostate = system: DU-145 prostate
EKVX NSCLC = system: EKVX NSCLC
HCC-2998 colon = system: HCC-2998 colon
HCT-116 colon = system: HCT-116 colon
HCT-15 colon = system: HCT-15 colon
HL-60(TB) leukemia = system: HL-60(TB) leukemia
HOP-62 NSCLC = system: HOP-62 NSCLC
HOP-92 NSCLC = system: HOP-92 NSCLC
HS 578T breast = system: HS 578T breast
HT29 colon = system: HT29 colon
KM12 colon = system: KM12 colon
M14 melanoma = system: M14 melanoma
MALME-3M melanoma = system: MALME-3M melanoma
MDA-MB-231 breast = system: MDA-MB-231 breast
MDA-MB-435 = system: MDA-MB-435
MOLT-4 leukemia = system: MOLT-4 leukemia
NCI-H522 lung = system: NCI-H522 lung
NCI/ADR-RES ovarian = system: NCI/ADR-RES ovarian
OVCAR-3 ovarian = system: OVCAR-3 ovarian
OVCAR-4 ovarian = system: OVCAR-4 ovarian
OVCAR-5 ovarian = system: OVCAR-5 ovarian
OVCAR-8 ovarian = system: OVCAR-8 ovarian
PC-3 prostate = system: PC-3 prostate
RPMI-8226 leukemia = system: RPMI-8226 leukemia
RXF 393 renal = system: RXF 393 renal
SF-295 CNS = system: SF-295 CNS
SF-539 CNS = system: SF-539 CNS
SK-MEL-2 melanoma = system: SK-MEL-2 melanoma
SK-MEL-28 melanoma = system: SK-MEL-28 melanoma
SK-MEL-5 melanoma = system: SK-MEL-5 melanoma
SK-OV-3 ovarian = system: SK-OV-3 ovarian
SNB-19 CNS = system: SNB-19 CNS
SNB-75 CNS = system: SNB-75 CNS
SR leukemia = system: SR leukemia
TK-10 renal = system: TK-10 renal
U251 CNS = system: U251 CNS
UACC-257 melanoma = system: UACC-257 melanoma
UACC-62 melanoma = system: UACC-62 melanoma
UO-31 renal = system: UO-31 renal

For `COc1cnc2c(c1)C(=O)c1c-2n(CCCN2CCNCC2)c(=O)c2cc([N+](=O)[O-])ccc12`, the GI50 (786-0 renal) was 209 nM, the TGI (786-0 renal) was 1160 nM and the GI50 (A498 renal) was 86.3 nM. For the same molecule, the TGI (A498 renal) was 2190 nM, the GI50 (A549 NSCLC) was 69.9 nM and the TGI (A549 NSCLC) was 1500 nM. It also gave a GI50 (ACHN renal) of 117 nM, a TGI (ACHN renal) of 1220 nM and a GI50 (BT-549 breast) of 1400 nM. The TGI (BT-549 breast) was 9700 nM, the GI50 (CAKI-1 renal) was 202 nM and the TGI (CAKI-1 renal) was 1710 nM. For the same molecule, the GI50 (CCRF-CEM leukemia) was 143 nM, the TGI (CCRF-CEM leukemia) was 1780 nM and the GI50 (COLO 205 colon) was 61.7 nM. For the same molecule, the TGI (COLO 205 colon) was 1790 nM, the GI50 (DU-145 prostate) was 278 nM and the TGI (DU-145 prostate) was 1230 nM. For the same molecule, the GI50 (EKVX NSCLC) was 1290 nM, the TGI (EKVX NSCLC) was 2690 nM and the GI50 (HCC-2998 colon) was 1110 nM. It also gave a TGI (HCC-2998 colon) of 2360 nM, a GI50 (HCT-116 colon) of 96 nM and a TGI (HCT-116 colon) of 1780 nM. The GI50 (HCT-15 colon) was 194 nM, the TGI (HCT-15 colon) was 1540 nM and the GI50 (HL-60(TB) leukemia) was 113 nM. It also gave a TGI (HL-60(TB) leukemia) of 1110 nM, a GI50 (HOP-62 NSCLC) of 65 nM and a TGI (HOP-62 NSCLC) of 572 nM. For the same molecule, the GI50 (HOP-92 NSCLC) was 1250 nM, the TGI (HOP-92 NSCLC) was 9910 nM and the GI50 (HS 578T breast) was 1820 nM. It also gave a TGI (HS 578T breast) of 4600 nM, a GI50 (HT29 colon) of 210 nM and a TGI (HT29 colon) of 1530 nM. For the same molecule, the GI50 (KM12 colon) was 380 nM, the TGI (KM12 colon) was 1770 nM and the GI50 (M14 melanoma) was 279 nM. For the same molecule, the TGI (M14 melanoma) was 1490 nM, the GI50 (MALME-3M melanoma) was 655 nM and the TGI (MALME-3M melanoma) was 2240 nM. The GI50 (MDA-MB-231 breast) was 1470 nM, the TGI (MDA-MB-231 breast) was 3330 nM and the GI50 (MDA-MB-435) was 1250 nM. It also gave a TGI (MDA-MB-435) of 2680 nM, a GI50 (MOLT-4 leukemia) of 36.5 nM and a TGI (MOLT-4 leukemia) of 1050 nM. For the same molecule, the GI50 (NCI-H522 lung) was 506 nM, the TGI (NCI-H522 lung) was 2030 nM and the GI50 (NCI/ADR-RES ovarian) was 1110 nM. The TGI (NCI/ADR-RES ovarian) was 2800 nM, the GI50 (OVCAR-3 ovarian) was 1190 nM and the TGI (OVCAR-3 ovarian) was 2630 nM. For the same molecule, the GI50 (OVCAR-4 ovarian) was 1240 nM, the TGI (OVCAR-4 ovarian) was 3010 nM and the GI50 (OVCAR-5 ovarian) was 1020 nM. The TGI (OVCAR-5 ovarian) was 2580 nM, the GI50 (OVCAR-8 ovarian) was 314 nM and the TGI (OVCAR-8 ovarian) was 2290 nM. The GI50 (PC-3 prostate) was 1170 nM, the TGI (PC-3 prostate) was 2560 nM and the GI50 (RPMI-8226 leukemia) was 301 nM. The TGI (RPMI-8226 leukemia) was 2280 nM, the GI50 (RXF 393 renal) was 401 nM and the TGI (RXF 393 renal) was 1940 nM. For the same molecule, the GI50 (SF-295 CNS) was 126 nM, the TGI (SF-295 CNS) was 1070 nM and the GI50 (SF-539 CNS) was 354 nM. It also gave a TGI (SF-539 CNS) of 1470 nM, a GI50 (SK-MEL-2 melanoma) of 2070 nM and a TGI (SK-MEL-2 melanoma) of 3950 nM. The GI50 (SK-MEL-28 melanoma) was 1420 nM, the TGI (SK-MEL-28 melanoma) was 3120 nM and the GI50 (SK-MEL-5 melanoma) was 403 nM. The TGI (SK-MEL-5 melanoma) was 1620 nM, the GI50 (SK-OV-3 ovarian) was 239 nM and the TGI (SK-OV-3 ovarian) was 771 nM. The GI50 (SNB-19 CNS) was 210 nM, the TGI (SNB-19 CNS) was 2100 nM and the GI50 (SNB-75 CNS) was 429 nM. It also gave a TGI (SNB-75 CNS) of 1970 nM, a GI50 (SR leukemia) of 42.4 nM and a TGI (SR leukemia) of 1900 nM. The GI50 (TK-10 renal) was 1110 nM, the TGI (TK-10 renal) was 2390 nM and the GI50 (U251 CNS) was 167 nM. The TGI (U251 CNS) was 1160 nM, the GI50 (UACC-257 melanoma) was 3490 nM and the TGI (UACC-257 melanoma) was 24100 nM. The GI50 (UACC-62 melanoma) was 176 nM, the TGI (UACC-62 melanoma) was 1570 nM and the GI50 (UO-31 renal) was 249 nM. The TGI (UO-31 renal) was 1700 nM.

Molecule `Nc1nc(SC2CCCCC2)nc2c1ncn2C1OC(CO)C(O)C1O` (configuration not stated) has a GI50 (M14 melanoma) of 14.8 µg/mL, a GI50 (NCI-H522 lung) of 96.6 µg/mL and a GI50 (SNB-75 CNS) of 69.8 µg/mL.
